{
  "source": "PubChem BioAssay AID2060908",
  "about": "(Molecular Pharmacology Branch, DTP, NCI, 2025)",
  "system": "186277-243-T-J2-PDC complex spheroids, viability",
  "test": "Anticancer human tumor 186277-243-T-J2-PDC patient-derived colon adenocarcinoma cell line growth inhibition [RAS]",
  "conditions": "for IC50: curve of first compound; for viability, T/C: stronger effect = lower value",
  "how_it_was_run": "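Multi-cell-type spheroids: tumor cells plus HUVEC endothelial cells and mesenchymal stem cells. RAS-pathway inhibitors were combined with targeted agents, each dosed in half-log steps down from clinical Cmax, or from 10 microM when Cmax was unknown.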",
  "key": {"[1]": {"conditions": "second compound 0.000949 µM, first compound 0.0316 µM"}, "[2]": {"conditions": "second compound 0.000949 µM, first compound 0.1 µM"}, "[3]": {"conditions": "second compound 0.000949 µM, first compound 0.316 µM"}, "[4]": {"conditions": "second compound 0.000949 µM, first compound 1 µM"}, "[5]": {"conditions": "second compound 0.000949 µM, first compound 3.16 µM"}, "[6]": {"conditions": "second compound 0.000949 µM, first compound 10 µM"}, "[7]": {"conditions": "second compound 0.003 µM, first compound 0.0316 µM"}, "[8]": {"conditions": "second compound 0.003 µM, first compound 0.1 µM"}, "[9]": {"conditions": "second compound 0.003 µM, first compound 0.316 µM"}, "[10]": {"conditions": "second compound 0.003 µM, first compound 1 µM"}, "[11]": {"conditions": "second compound 0.003 µM, first compound 3.16 µM"}, "[12]": {"conditions": "second compound 0.003 µM, first compound 10 µM"}, "[13]": {"conditions": "second compound 0.00949 µM, first compound 0.0316 µM"}, "[14]": {"conditions": "second compound 0.00949 µM, first compound 0.1 µM"}, "[15]": {"conditions": "second compound 0.00949 µM, first compound 0.316 µM"}, "[16]": {"conditions": "second compound 0.00949 µM, first compound 1 µM"}, "[17]": {"conditions": "second compound 0.00949 µM, first compound 3.16 µM"}, "[18]": {"conditions": "second compound 0.00949 µM, first compound 10 µM"}, "[19]": {"conditions": "second compound 0.03 µM, first compound 0.0316 µM"}, "[20]": {"conditions": "second compound 0.03 µM, first compound 0.1 µM"}, "[21]": {"conditions": "second compound 0.03 µM, first compound 0.316 µM"}, "[22]": {"conditions": "second compound 0.03 µM, first compound 1 µM"}, "[23]": {"conditions": "second compound 0.03 µM, first compound 3.16 µM"}, "[24]": {"conditions": "second compound 0.03 µM, first compound 10 µM"}, "[25]": {"conditions": "second compound 0.0949 µM, first compound 0.0316 µM"}, "[26]": {"conditions": "second compound 0.0949 µM, first compound 0.1 µM"}, "[27]": {"conditions": "second compound 0.0949 µM, first compound 0.316 µM"}, "[28]": {"conditions": "second compound 0.0949 µM, first compound 1 µM"}, "[29]": {"conditions": "second compound 0.0949 µM, first compound 3.16 µM"}, "[30]": {"conditions": "second compound 0.0949 µM, first compound 10 µM"}, "[31]": {"conditions": "second compound 0.3 µM, first compound 0.0316 µM"}, "[32]": {"conditions": "second compound 0.3 µM, first compound 0.1 µM"}, "[33]": {"conditions": "second compound 0.3 µM, first compound 0.316 µM"}, "[34]": {"conditions": "second compound 0.3 µM, first compound 1 µM"}, "[35]": {"conditions": "second compound 0.3 µM, first compound 3.16 µM"}, "[36]": {"conditions": "second compound 0.3 µM, first compound 10 µM"}},
  "data": [
    {"compound": "CC1(O)CCCC1n1c(=O)c(C(F)F)cc2cnc(NC3CCN(S(C)(=O)=O)CC3)nc21", "note": "(centres undefined) + CCn1c(-c2cc(N3CCN(C)CC3)cnc2C(C)OC)c2c3cc(ccc31)-c1csc(n1)CC(NC(=O)C1CC1C)C(=O)N1CCCC(N1)C(=O)OCC(C)(C)C2;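 note: spheroids exposed to compounds for 7 days before viability read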", "values": [
      {"measurement": "IC50", "setting": "second compound 0.000949 µM", "value": 3790, "unit": "nM"},
      {"measurement": "IC50", "setting": "second compound 0.003 µM", "value": 1080, "unit": "nM"},
      {"measurement": "IC50", "setting": "second compound 0.00949 µM", "value": "< 31.6", "unit": "nM"},
      {"measurement": "IC50", "setting": "second compound 0.03 µM", "value": "< 31.6", "unit": "nM"},
      {"measurement": "IC50", "setting": "second compound 0.0949 µM", "value": "< 31.6", "unit": "nM"},
      {"measurement": "IC50", "setting": "second compound 0.3 µM", "value": "< 31.6", "unit": "nM"},
      {"measurement": "viability, T/C", "setting": "[1]", "value": 124, "unit": "%"},
      {"measurement": "viability, T/C", "setting": "[2]", "value": 104, "unit": "%"},
      {"measurement": "viability, T/C", "setting": "[3]", "value": 108, "unit": "%"},
      {"measurement": "viability, T/C", "setting": "[4]", "value": 86.7, "unit": "%"},
      {"measurement": "viability, T/C", "setting": "[5]", "value": 61.8, "unit": "%"},
      {"measurement": "viability, T/C", "setting": "[6]", "value": 1.35, "unit": "%"},
      {"measurement": "viability, T/C", "setting": "[7]", "value": 116, "unit": "%"},
      {"measurement": "viability, T/C", "setting": "[8]", "value": 107, "unit": "%"},
      {"measurement": "viability, T/C", "setting": "[9]", "value": 60.8, "unit": "%"},
      {"measurement": "viability, T/C", "setting": "[10]", "value": 55.4, "unit": "%"},
      {"measurement": "viability, T/C", "setting": "[11]", "value": 36.9, "unit": "%"},
      {"measurement": "viability, T/C", "setting": "[12]", "value": 0.72, "unit": "%"},
      {"measurement": "viability, T/C", "setting": "[13]", "value": 47.4, "unit": "%"},
      {"measurement": "viability, T/C", "setting": "[14]", "value": 41, "unit": "%"},
      {"measurement": "viability, T/C", "setting": "[15]", "value": 23.6, "unit": "%"},
      {"measurement": "viability, T/C", "setting": "[16]", "value": 20.1, "unit": "%"},
      {"measurement": "viability, T/C", "setting": "[17]", "value": 14, "unit": "%"},
      {"measurement": "viability, T/C", "setting": "[18]", "value": 0.4, "unit": "%"},
      {"measurement": "viability, T/C", "setting": "[19]", "value": 15.2, "unit": "%"},
      {"measurement": "viability, T/C", "setting": "[20]", "value": 11.5, "unit": "%"},
      {"measurement": "viability, T/C", "setting": "[21]", "value": 10.6, "unit": "%"},
      {"measurement": "viability, T/C", "setting": "[22]", "value": 9.98, "unit": "%"},
      {"measurement": "viability, T/C", "setting": "[23]", "value": 7.39, "unit": "%"},
      {"measurement": "viability, T/C", "setting": "[24]", "value": 0.34, "unit": "%"},
      {"measurement": "viability, T/C", "setting": "[25]", "value": 9.76, "unit": "%"},
      {"measurement": "viability, T/C", "setting": "[26]", "value": 7.17, "unit": "%"},
      {"measurement": "viability, T/C", "setting": "[27]", "value": 6.71, "unit": "%"},
      {"measurement": "viability, T/C", "setting": "[28]", "value": 6.53, "unit": "%"},
      {"measurement": "viability, T/C", "setting": "[29]", "value": 5.94, "unit": "%"},
      {"measurement": "viability, T/C", "setting": "[30]", "value": 0.31, "unit": "%"},
      {"measurement": "viability, T/C", "setting": "[31]", "value": 6.48, "unit": "%"},
      {"measurement": "viability, T/C", "setting": "[32]", "value": 6.07, "unit": "%"},
      {"measurement": "viability, T/C", "setting": "[33]", "value": 5.61, "unit": "%"},
      {"measurement": "viability, T/C", "setting": "[34]", "value": 5.93, "unit": "%"},
      {"measurement": "viability, T/C", "setting": "[35]", "value": 5.05, "unit": "%"},
      {"measurement": "viability, T/C", "setting": "[36]", "value": 0.34, "unit": "%"}
    ]},
    {"compound": "CCC(CC)c1cc(NC2CCC(N)C2)n2nccc2n1", "note": "(centres undefined) + CCn1c(-c2cc(N3CCN(C)CC3)cnc2C(C)OC)c2c3cc(ccc31)-c1csc(n1)CC(NC(=O)C1CC1C)C(=O)N1CCCC(N1)C(=O)OCC(C)(C)C2", "values": [
      {"measurement": "IC50", "setting": "second compound 0.000949 µM", "value": 1840, "unit": "nM"},
      {"measurement": "IC50", "setting": "second compound 0.003 µM", "value": 1730, "unit": "nM"},
      {"measurement": "IC50", "setting": "second compound 0.00949 µM", "value": 419, "unit": "nM"},
      {"measurement": "IC50", "setting": "second compound 0.03 µM", "value": "< 31.6", "unit": "nM"},
      {"measurement": "IC50", "setting": "second compound 0.0949 µM", "value": "< 31.6", "unit": "nM"},
      {"measurement": "IC50", "setting": "second compound 0.3 µM", "value": "< 31.6", "unit": "nM"},
      {"measurement": "viability, T/C", "setting": "[1]", "value": 123, "unit": "%"},
      {"measurement": "viability, T/C", "setting": "[2]", "value": 115, "unit": "%"},
      {"measurement": "viability, T/C", "setting": "[3]", "value": 109, "unit": "%"},
      {"measurement": "viability, T/C", "setting": "[4]", "value": 101, "unit": "%"},
      {"measurement": "viability, T/C", "setting": "[5]", "value": 4.75, "unit": "%"},
      {"measurement": "viability, T/C", "setting": "[6]", "value": 0.22, "unit": "%"},
      {"measurement": "viability, T/C", "setting": "[7]", "value": 99.4, "unit": "%"},
      {"measurement": "viability, T/C", "setting": "[8]", "value": 100, "unit": "%"},
      {"measurement": "viability, T/C", "setting": "[9]", "value": 107, "unit": "%"},
      {"measurement": "viability, T/C", "setting": "[10]", "value": 91.9, "unit": "%"},
      {"measurement": "viability, T/C", "setting": "[11]", "value": 3.89, "unit": "%"},
      {"measurement": "viability, T/C", "setting": "[12]", "value": 0.17, "unit": "%"},
      {"measurement": "viability, T/C", "setting": "[13]", "value": 55.5, "unit": "%"},
      {"measurement": "viability, T/C", "setting": "[14]", "value": 54.6, "unit": "%"},
      {"measurement": "viability, T/C", "setting": "[15]", "value": 57.5, "unit": "%"},
      {"measurement": "viability, T/C", "setting": "[16]", "value": 33, "unit": "%"},
      {"measurement": "viability, T/C", "setting": "[17]", "value": 3.19, "unit": "%"},
      {"measurement": "viability, T/C", "setting": "[18]", "value": 0.17, "unit": "%"},
      {"measurement": "viability, T/C", "setting": "[19]", "value": 15.8, "unit": "%"},
      {"measurement": "viability, T/C", "setting": "[20]", "value": 17, "unit": "%"},
      {"measurement": "viability, T/C", "setting": "[21]", "value": 18.1, "unit": "%"},
      {"measurement": "viability, T/C", "setting": "[22]", "value": 9.82, "unit": "%"},
      {"measurement": "viability, T/C", "setting": "[23]", "value": 3.01, "unit": "%"},
      {"measurement": "viability, T/C", "setting": "[24]", "value": 0.19, "unit": "%"},
      {"measurement": "viability, T/C", "setting": "[25]", "value": 8.36, "unit": "%"},
      {"measurement": "viability, T/C", "setting": "[26]", "value": 8.25, "unit": "%"},
      {"measurement": "viability, T/C", "setting": "[27]", "value": 9.17, "unit": "%"},
      {"measurement": "viability, T/C", "setting": "[28]", "value": 5.58, "unit": "%"},
      {"measurement": "viability, T/C", "setting": "[29]", "value": 2.44, "unit": "%"},
      {"measurement": "viability, T/C", "setting": "[30]", "value": 0.29, "unit": "%"},
      {"measurement": "viability, T/C", "setting": "[31]", "value": 7.09, "unit": "%"},
      {"measurement": "viability, T/C", "setting": "[32]", "value": 6.68, "unit": "%"},
      {"measurement": "viability, T/C", "setting": "[33]", "value": 6.45, "unit": "%"},
      {"measurement": "viability, T/C", "setting": "[34]", "value": 4.66, "unit": "%"},
      {"measurement": "viability, T/C", "setting": "[35]", "value": 2.73, "unit": "%"},
      {"measurement": "viability, T/C", "setting": "[36]", "value": 0.31, "unit": "%"}
    ]}
  ]
}
